Results as given in US20240100081A1, “COMPOSITIONS AND METHODS FOR TREATING AGE-RELATED MACULAR DEGENERATION AND GEOGRAPHIC ATROPHY” (University of Virginia Patent Foundation, priority 2017, published 2024).

Tests used:
[1] = test system: IL-18; test: IL-18 secretion ELISA, mouse RPE cells; type: cell-based; conditions: Casp11−/− and Mb21d1−/− mouse RPE cells; LPS-primed, MSU 250 μg/ml
Method: Secreted human and mouse interferon-β and IL-18 in the media were detected using the ELISA kits (mouse IFN-β, R&D Systems Cat #42400-1; mouse IL-18, R&D Systems Cat #7625; human IFN-β, R&D Systems Cat #41410; human IL-18, R&D systems Cat #DY318-05) according to the manufacturer's instructions. Primary mouse cells cultured as above. WT, Gsdmd^−/−, Casp11^−/−, and Mb21d1^−/− mouse RPE cells were seeded at a density of 250,000 cells/well in a 12-well plate. When confluency reached 60-70%, cells were transfected with 20 pmol of in vitro transcribed Alu RNA or mock using Lipofectamine 2000 reagent (Life Technologies, Carlsbad, CA) following the manufacturer protocol. Media was collected to detect secreted cytokine content at 8 to 24 h post-transfection. For examining the induction of IL-18 secretion by monosodium urate (MSU) crystals (Invivogen Cat #tlrl-msu), mouse RPE cells were primed with LPS (500 ng/ml) for 6 h and exposed to MSU (250 μg/ml) for 16 h, and media were collected to detect secreted cytokine.

[2] = test system: RPE; conditions: earlier demonstration (refs 2, 21); cited from earlier work
[3] = test system: STAT2; test: STAT2 phosphorylation immunoblot, human RPE cells; type: cell-based; conditions: lentiviral shRNA
Method: (§1) Cell and tissue lysates prepared in RIPA buffer where homogenized by sonication. Protein concentration was determined using Pierce BCA Protein Assay Kit (Thermo Fisher Scientific Inc.). Equal quantity of protein (10-50 μg) prepared in Laemmli buffer were resolved by SDS-PAGE on NOVEX® Tris-Glycine Gels (Invitrogen), and transferred onto Immobilon-FL PVDF membranes (Millipore). The transferred membranes were blocked in ODYSSEY® Blocking Buffer (PBS) or 5% nonfat dry skim milk for 1 hour at RT and then incubated with primary antibody at 4° C. overnight. The immunoreactive bands were visualized with help of species specific secondary antibodies conjugated with IRDYE® or HRP. The blot image were either captured on ODYSSEY® imaging systems or on an autoradiography film. […]

[4] = test system: caspase-4; test: Caspase-4 activation (p30) immunoblot in human RPE cells; type: cell-based; conditions: lentiviral shRNA
Method: as §1

[5] = test system: IFNB mRNA; test: IFNB mRNA real-time PCR, human RPE cells; type: cell-based; conditions: lentiviral shRNA
Method: Real-time PCR Total RNA purified from cell using Trizol reagent (Invitrogen) following manufacturer's recommendation was DNase treated and reverse transcribed using […]® Reverse Transcription kit (QIAGEN). The RT products (cDNA) were amplified by real-time quantitative PCR (Applied Biosystems 7900 HT Fast Real-Time PCR system) with Power SYBR green Master Mix. Relative gene expression was determined by 2^−ΔΔCt t method using 18S rRNA or GAPDH as internal control. Primers were used as described in the provisional patent application from which this application depends and as in Kerur et al., 2018, Nature, the publication resulting from the data in the provisional application. The primers were for human IFNB1, CASP4, DICER, cGAS, 18s rRNA, mitochondrial DNA, GAPDH, and GSDMD, MIP1α, IL6, IL8, and mouse Ifnb1, Gapdh, 18s rRNA, and mitochondrial DNA.
Lentivirus articles were either produced by the University of Kentucky Viral Production Core facilities or in house. Lentivirus vector plasmids expressing scrambled sequences or shRNA sequences targeting human caspase-4 and cGAS were purchased (MISSION®shRNA, Sigma-Aldrich) to produce lentiviral particles. Human RPE cells at passage 3 were incubated with lentiviral particles at multiplicity of infection (MOI) of 5 overnight in regular growth media containing polybrene (4 μg/ml). […] Knockdown of the target proteins was determined by immunoblotting.

[6] = test system: caspase-1; test: Caspase-1 activation (p20) immunoblot in human RPE cells; type: cell-based; conditions: lentiviral shRNA
Method: as §1
Lentivirus articles were either produced by the University of Kentucky Viral Production Core facilities or in house. […] Knockdown of the target proteins was determined by immunoblotting.

[7] = biological target: T1, cGAS (Mus musculus, UniProt Q8C6L5); test: cGAS-mtDNA interaction immunoprecipitation assay (HA-cGAS MEFs); type: cell-based; conditions: HA-cGAS reconstituted Mb21d1−/− MEFs
T1 construct: expressed in transfected cells
T1 sequence (Q8C6L5 whole entry): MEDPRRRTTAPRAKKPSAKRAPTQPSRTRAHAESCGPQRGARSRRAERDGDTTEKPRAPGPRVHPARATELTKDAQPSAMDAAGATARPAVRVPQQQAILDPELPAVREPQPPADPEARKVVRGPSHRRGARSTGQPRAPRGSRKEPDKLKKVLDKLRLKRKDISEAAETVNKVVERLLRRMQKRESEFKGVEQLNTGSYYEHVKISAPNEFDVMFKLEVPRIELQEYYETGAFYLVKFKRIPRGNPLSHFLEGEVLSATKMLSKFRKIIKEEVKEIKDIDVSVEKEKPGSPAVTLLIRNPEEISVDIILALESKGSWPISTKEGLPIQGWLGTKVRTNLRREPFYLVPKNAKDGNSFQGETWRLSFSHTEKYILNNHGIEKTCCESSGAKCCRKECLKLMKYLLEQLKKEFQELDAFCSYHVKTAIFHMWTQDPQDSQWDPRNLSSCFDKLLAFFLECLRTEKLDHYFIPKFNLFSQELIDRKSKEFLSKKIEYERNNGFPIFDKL
Excerpt: Immortalized cGAS^−/− mouse embryonic fibroblasts (MEF) reconstituted with HA-tagged mouse cGAS (HA-cGAS) were described earlier^28. Interaction between mtDNA and cGAS was monitored using Express Chromatin Immunoprecipitation Kit (Active Motif, CHIP-IT® Express, cat #53008). Briefly mock, Alu RNA, poly I: C or plasmid DNA (pUC19) transfected HA-cGAS reconstituted cGAS^−/− MEFs were fixed with 1% formaldehyde per manufacturer's instructions. The cells were then lysed by sonication in the shearing buffer, centrifuged for 10 min at 18,000 g in a 4° C. microfuge. The supernatant containing the cell lysate was collected and cGAS was immunoprecipitated from each sample using anti-HA tag antibody (Abcam, cat #ab9110). DNA in the IP was eluted, reverse crosslinked and purified using Chromatin IP DNA Purification Kit (Active Motif, cat #58002). Purified DNA was analyzed by qPCR using mouse mtDNA specific primer pairs.

[8] = test system: RPE; test: Alu-induced RPE degeneration in mice (subretinal injection; fundus photography, ZO-1 flat mounts); type: in vivo, mouse; conditions: Gsdmd−/− mice
Method: Alu-mediated RPE degeneration was induced by exposing mice to Alu RNA as previously described^14-18. Seven days later, RPE health was assessed by fundus photography and immunofluorescence staining of zonula occludens-1 (ZO-1) on RPE flat mounts (whole mount of posterior eye cup containing RPE and choroid layers). Mouse RPE and choroid flat mounts were fixed with 4% paraformaldehyde or 100% methanol, stained with rabbit polyclonal antibodies against mouse ZO-1 (1:100, Invitrogen), and visualized with Alexa-594 (Invitrogen). All images were obtained by microscopy (model SP-5, Leica; or Axio Observer Z1, Zeiss). Imaging was performed by an operator masked to the group assignments.
Binary Assignment: Healthy RPE cells form a polygonal tessellation with a principally hexagonal “honeycomb” formation. RPE degeneration was assessed as a disruption of this uniformity of this polygonal sheet. Thus, RPE health was assessed as the presence or absence of morphological disruption in RPE flat mounts by two independent raters who were masked to the group assignments. […] Inter-rater reliability was measured by agreement on assignments, Pearson coefficient of determination, and Fleiss κ. […]
Cellular Morphometry: Quantifying cellular morphometry for hexagonally packed cells was performed in semi-automated fashion by three masked graders by adapting our previous analysis of corneal endothelial cell density^19. […]

[9] = test system: RPE; test: RPE flat mount annexin V/PI staining in mice; conditions: Alu RNA-treated Gsdmd−/− mice

O=c1[nH]c(=O)c2[nH]c([O-])nc2[nH]1.[Na+] [MSU, monosodium urate]
IL-18 secretion [1]: unaffected

NCC(=O)O [glycine]
effect on Alu RNA-induced RPE degeneration [2]: neither necrostatin-1, an inhibitor of primary necrosis^39, nor glycine, an inhibitor of pyroptosis^40, blocks

CN1C(=O)C(Cc2c[nH]c3ccccc23)NC1=S (stereo not shown) [necrostatin-1]
effect on Alu RNA-induced RPE degeneration [2]: neither necrostatin-1, an inhibitor of primary necrosis^39, nor glycine, an inhibitor of pyroptosis^40, blocks

cGAS shRNA: shRNA against cGAS, Sigma-Aldrich TRCN0000150010, SEQ ID NO: 15 (guide CCGGCCTGCTGTAACACTTCTTATTCTCGAGAATAAGAAGTGTTACAGCAGGTTTTTTG; listed as Homo sapiens)
effect on Alu RNA-induced phosphorylation of STAT2 [3]: suppressed | effect on Alu RNA-induced activation of caspase-4 (p30 subunit) [4]: suppressed | effect on DICER1 AS-induced IFNB mRNA [5]: markedly depressed | effect on Alu RNA-induced activation of caspase-1 (p20 subunit) [6]: suppressed

poly(I:C)
enrichment of mtDNA in cGAS immunoprecipitate [7]: not

recIL-18: recombinant mature IL-18 (MBL Cat #B002-5)
resistance to Alu RNA-induced RPE degeneration [8]: overcome | annexin-V / PI staining of RPE flat mounts [9]: numerous annexin-V^+ PI^− cells
